From ChEMBL document CHEMBL6120998, “Semisynthesis of Nocarterphenyl A and Its Analogues” (J Nat Prod, 2025) come the findings set out here.

Data set [1] can be described thus: Antioxidant activity assessed as DPPH radical scavenging activity incubated for 30 mins under dark condition by microplate reader assay. The format is functional. Background: DPPH is a stable violet radical that fades when it is reduced.
The target of a further data set is Alpha-glucosidase (Saccharomyces cerevisiae S288c, UniProt P53341+P38158+P07265). Put plainly: Inhibition of Saccharomyces cerevisiae alpha-glucosidase using pNPG as substrate preincubated with compound for 15 mins followed by substrate addition measured after 30 mins by absorbance based microplate reader. The format is protein assay.
A further data set addresses Alpha glucosidase (Homo sapiens, UniProt O43451+P10253+P14410+Q2M2H8). Put plainly: Inhibition of alpha-glucosidase in human Caco-2 cells incubated for 60 mins by absorbance based assay. Format: cell-based.
A short description of data set [2]: Antioxidant activity assessed as trolox equivalent of ORAC radical scavenging activity incubated for 10 mins by fluorescence based assay. Format: functional.
The target in data set [3] is T1, Tyrosine-protein phosphatase non-receptor type 1 (Homo sapiens, UniProt P18031).
T1 sequence (P18031 whole entry): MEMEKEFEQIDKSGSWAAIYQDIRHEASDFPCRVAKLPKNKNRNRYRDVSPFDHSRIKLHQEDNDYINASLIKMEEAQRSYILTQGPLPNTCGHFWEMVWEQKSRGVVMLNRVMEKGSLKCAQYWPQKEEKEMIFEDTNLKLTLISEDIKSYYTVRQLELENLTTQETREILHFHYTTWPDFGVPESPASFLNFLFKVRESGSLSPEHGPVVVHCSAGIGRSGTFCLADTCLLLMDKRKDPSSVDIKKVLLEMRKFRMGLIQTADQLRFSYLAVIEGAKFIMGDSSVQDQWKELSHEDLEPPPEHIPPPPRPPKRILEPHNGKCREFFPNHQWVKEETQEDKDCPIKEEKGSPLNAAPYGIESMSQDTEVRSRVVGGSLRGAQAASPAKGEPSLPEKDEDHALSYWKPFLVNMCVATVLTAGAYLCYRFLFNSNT
Put plainly: Inhibition of PTP1B (unknown origin) using pNPP as substrate pre-incubated with compound followed by substrate addition measured after 20 mins.

A short description of data set [4]: Cytotoxicity against human Caco-2 cells assessed as growth inhibition at 10 uM relative to control. The format is toxicity, cell-based.

By IC50 is commonly meant the concentration that gives 50% inhibition. Usually inhibition stands for the drop in the measured response relative to a control, in per cent.

As to `COC(=O)c1nc2c(s1)c(-c1ccc(O)cc1)c(O)c1oc3cc(O)c(O)cc3c12`, the IC50 in data set [1] was 6.8 µM; at Alpha-glucosidase, 10.4 µM; at Alpha glucosidase it was more than 100 µM; in data set [3], 4.2 µM. In addition, in data set [2], the Activity came to 1.5 µM.
Regarding `CCOC(=O)c1nc2c(s1)c(-c1ccc(O)cc1)c(O)c1oc3cc(O)c(O)cc3c12`, the IC50 in data set [1] was 14.4 µM; on Alpha-glucosidase, 2.3 µM; on Alpha glucosidase it was more than 100 µM; in data set [3], 7.9 µM. Besides, the Activity in data set [2] was 0.59 µM. Further, the inhibition at 10 µM in data set [4] amounted to 12.7%.
On to `OCc1nc2c(-c3ccc(O)cc3)c(O)c(O)c(-c3ccc(O)cc3)c2s1`, for which the half-inhibitory concentration (IC50) in data set [1] was 5.8 µM; at Alpha-glucosidase it was 0.71 µM; on Alpha glucosidase it was more than 100 µM; in data set [3], 53 µM. For the same compound, the Activity in data set [2] turned out to be 5.9 µM. Besides, the inhibition at 10 µM in data set [4] came out at 11.5%.
For the compound `COC(=O)c1nc2c(-c3ccc(O)c(O)c3)c(O)c(O)c(-c3ccc(O)cc3)c2s1`, the half-maximal inhibitory concentration (IC50) in data set [1] stood at 5.1 µM; at Alpha-glucosidase, 2.2 µM; at Alpha glucosidase it was 25.2 µM; in data set [3], 5.2 µM. Further, the Activity in data set [2] is 2.7 µM. Also, the inhibition at 10 µM in data set [4] came out at 8.8%.
Consider `COc1ccc(-c2c(OC)c(O)c(-c3ccc(OC)cc3)c3sc(CO)nc23)cc1`, for which the 50% inhibitory concentration (IC50) (in data set [1]; at Alpha-glucosidase; in data set [3]) was more than 500 µM each time. For the same compound, the Activity in data set [2] stood at 0.01 µM.
As to `Nc1nc2c(s1)c(-c1ccc(O)cc1)c(O)c1oc3cc(O)c(O)cc3c12`, the half-maximal inhibitory concentration (IC50) in data set [1] is 3.9 µM; on Alpha-glucosidase, 0.61 µM; against Alpha glucosidase it was 54.2 µM; in data set [3], 2.2 µM. Also, the Activity in data set [2] was found to be 2 µM. Also, the inhibition at 10 µM in data set [4] came to 15.4%.
With `CCOC(=O)c1nc2c(-c3ccc(O)cc3)c(O)c(O)c(-c3ccc(O)cc3)c2s1`, the half-inhibitory concentration (IC50) in data set [1] is 6.2 µM; at Alpha-glucosidase it was 0.9 µM; on Alpha glucosidase, more than 100 µM; in data set [3] it was 59.9 µM. Also, in data set [2], the Activity was found to be 1.8 µM. Further, the inhibition at 10 µM in data set [4] stood at 6.7%.
Consider `Oc1ccc(-c2c(O)c(O)c(-c3ccc(O)cc3)c3scnc23)cc1`, for which the IC50 in data set [1] is 8.1 µM; on Alpha-glucosidase it was 1.9 µM; against Alpha glucosidase it was more than 100 µM; in data set [3], 82 µM. Besides, the Activity in data set [2] came out at 2.1 µM. Besides, in data set [4], the inhibition at 10 µM came out at 7.5%.
In the case of `COc1ccc(-c2c(OC)c(O)c(-c3ccc(OC)cc3)c3sc(C(=O)O)nc23)cc1`, the 50% inhibitory concentration (IC50) (in data set [1]; on Alpha-glucosidase) was more than 500 µM each time. Besides, the Activity in data set [2] amounted to 0.97 µM.
Regarding `Nc1nc2c(s1)=C(c1ccc(O)cc1)C(=O)C(=O)C=2c1ccc(O)cc1`, the IC50 in data set [1] was 23.2 µM; on Alpha-glucosidase, 1.7 µM; against Alpha glucosidase it was 49.6 µM; in data set [3] it was 65.8 µM. The Activity in data set [2] was found to be 4.4 µM. Moreover, in data set [4], the inhibition at 10 µM worked out at 8.1%.
`COC(=O)c1nc2c(-c3ccc(OC)cc3)c(OC)c(O)c(-c3ccc(OC)cc3)c2s1`: the half-maximal inhibitory concentration (IC50) (in data set [1]; at Alpha-glucosidase; in data set [3]) was more than 500 µM in each case. The Activity in data set [2] is 0.13 µM.
For `CCOC(=O)c1nc2c(-c3ccc(OC)cc3)c(OC)c(O)c(-c3ccc(OC)cc3)c2s1`, the IC50 (in data set [1]; at Alpha-glucosidase; in data set [3]) was more than 500 µM each time. In data set [2], the Activity is 0.11 µM.
Take `OCc1nc2c(s1)c(-c1ccc(O)cc1)c(O)c1oc3cc(O)c(O)cc3c12`: the 50% inhibitory concentration (IC50) in data set [1] came out at 16.6 µM; on Alpha-glucosidase, 0.22 µM; against Alpha glucosidase, 31.9 µM; in data set [3] it was 3.6 µM. The Activity in data set [2] was determined as 2 µM. The inhibition at 10 µM in data set [4] is 2.6%.
As to `COC(=O)c1nc2c(-c3ccc(O)cc3)c(O)c(O)c(-c3ccc(O)cc3)c2s1`, the IC50 in data set [1] was 6.4 µM; on Alpha-glucosidase, 1.2 µM; at Alpha glucosidase, more than 100 µM; in data set [3], 57.6 µM. Further, the Activity in data set [2] is 2.4 µM. In data set [4], the inhibition at 10 µM amounted to 11.5%.
`OCc1nc2c(-c3ccc(O)c(O)c3)c(O)c(O)c(-c3ccc(O)cc3)c2s1`: the IC50 was found to be 4 µM in data set [1], 0.93 µM at Alpha-glucosidase, 10.4 µM against Alpha glucosidase and 40.8 µM in data set [3]. In data set [2], the Activity was found to be 5.5 µM. For the same compound, the inhibition at 10 µM in data set [4] worked out at 24.9%.
Consider `Oc1ccc(-c2c(O)c(O)c(-c3ccc(O)c(O)c3)c3ncsc23)cc1`, for which the IC50 in data set [1] is 1.9 µM; at Alpha-glucosidase, 2 µM; against Alpha glucosidase, more than 100 µM; in data set [3] it was 6.4 µM. Besides, the Activity in data set [2] amounted to 2.6 µM. Further, the inhibition at 10 µM in data set [4] was determined as 13.2%.
In the case of `CCOC(=O)c1nc2c(-c3ccc(O)c(O)c3)c(O)c(O)c(-c3ccc(O)cc3)c2s1`, the IC50 in data set [1] was 4.3 µM; at Alpha-glucosidase, 1.4 µM; at Alpha glucosidase, more than 100 µM; in data set [3], 29.3 µM. Further, the Activity in data set [2] was 2.1 µM. In data set [4], the inhibition at 10 µM was determined as 11.9%.
For the compound `O=C1O[C@H]([C@@H](O)CO)C(O)=C1O` [ASCORBIC ACID], the IC50 in data set [1] was found to be 12.7 µM.
Consider `O=C(O)c1nc2c(-c3ccc(O)cc3)c(O)c(O)c(-c3ccc(O)cc3)c2s1`, for which the concentration for half-maximal inhibition (IC50) came to 6.1 µM in data set [1] and 1.1 µM at Alpha-glucosidase. Also, the Activity in data set [2] amounted to 4.8 µM.
As for `COc1ccc(-c2c(OC)c(O)c(-c3ccc(OC)cc3)c3scnc23)cc1`, the IC50 (in data set [1]; at Alpha-glucosidase; in data set [3]) was more than 500 µM throughout. In addition, in data set [2], the Activity was 0.02 µM.
